What was measured:
[1] = Cytotoxicity against human MRC5 cells up to 1 x 10^-4M; assay type: toxicity, cell-based
[2] = Competitive inhibition of Listeria monocytogenes C-terminal His6-tagged NADK1 expressed in Escherichia coli BL21(DE3) assessed as reduction in NADP production using varying levels of NAD as substrate by glucose-6-phosphate dehydrogenase coupled enzyme based spectrophotometric method
NAD kinase [3] = target: T1, NAD kinase (Homo sapiens, UniProt O95544); assay: Inhibition of human NADK expressed in Escherichia coli BL21(DE3) assessed as reduction in NADP production using NAD as substrate by glucose-6-phosphate dehydrogenase coupled enzyme based spectrophotometric method
T1 sequence (O95544 whole entry): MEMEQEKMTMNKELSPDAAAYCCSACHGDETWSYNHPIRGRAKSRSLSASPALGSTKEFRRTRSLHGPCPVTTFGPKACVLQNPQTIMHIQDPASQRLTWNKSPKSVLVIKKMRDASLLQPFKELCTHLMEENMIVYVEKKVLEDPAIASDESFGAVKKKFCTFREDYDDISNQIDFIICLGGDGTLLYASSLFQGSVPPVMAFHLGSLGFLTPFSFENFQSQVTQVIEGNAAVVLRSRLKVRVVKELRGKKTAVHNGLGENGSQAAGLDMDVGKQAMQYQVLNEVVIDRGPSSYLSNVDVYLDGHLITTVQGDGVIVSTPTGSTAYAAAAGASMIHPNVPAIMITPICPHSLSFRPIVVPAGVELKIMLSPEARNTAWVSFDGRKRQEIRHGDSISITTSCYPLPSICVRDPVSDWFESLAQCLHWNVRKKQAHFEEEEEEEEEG

NAD kinase [4] = target: T2, NAD kinase (Staphylococcus aureus (strain COL), UniProt Q5HH78); assay: Inhibition of Staphylococcus aureus COL NADK expressed in Escherichia coli BL21(DE3) assessed as reduction in NADP production using NAD as substrate by glucose-6-phosphate dehydrogenase coupled enzyme based spectrophotometric method; design: species or system Staphylococcus aureus subsp. aureus COL
T2 sequence (Q5HH78 whole entry): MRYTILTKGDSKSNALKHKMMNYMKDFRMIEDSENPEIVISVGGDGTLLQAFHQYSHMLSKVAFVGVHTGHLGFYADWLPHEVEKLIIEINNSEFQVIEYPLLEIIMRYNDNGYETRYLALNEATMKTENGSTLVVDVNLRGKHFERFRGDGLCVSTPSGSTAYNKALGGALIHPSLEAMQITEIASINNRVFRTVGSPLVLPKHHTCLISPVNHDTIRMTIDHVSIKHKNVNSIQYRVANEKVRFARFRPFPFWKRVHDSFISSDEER

Listeria monocytogenes = assay: Inhibition of Listeria monocytogenes C-terminal His6-tagged NADK1 expressed in Escherichia coli BL21(DE3) assessed as reduction in NADP production at 300 uM using NAD as substrate by glucose-6-phosphate dehydrogenase coupled enzyme based spectrophotometric method relative to control relative to control
[5] = target: T3, NAD kinase (Homo sapiens) (UniProt O95544); assay: Inhibition of human NADK expressed in Escherichia coli BL21(DE3) assessed as reduction in NADP production at 250 uM using NAD as substrate by glucose-6-phosphate dehydrogenase coupled enzyme based spectrophotometric method relative to control
T3 sequence (whole entry): T1 sequence (O95544 whole entry)

[6] = target: T3, NAD kinase (Homo sapiens); assay: Inhibition of human NADK expressed in Escherichia coli BL21(DE3) assessed as reduction in NADP production at 500 uM using NAD as substrate by glucose-6-phosphate dehydrogenase coupled enzyme based spectrophotometric method relative to control
[7] = Ratio of Ki for human NADK harboring Listeria monocytogenes NADK1 segment 1 expressed in Escherichia coli BL21(DE3) to Ki for human NADK expressed in Escherichia coli BL21(DE3)
[8] = target: T3, NAD kinase (Homo sapiens); assay: Inhibition of human NADK expressed in Escherichia coli BL21(DE3) assessed as reduction in NADP production at 400 uM using NAD as substrate by glucose-6-phosphate dehydrogenase coupled enzyme based spectrophotometric method relative to control

| Ki (NAD kinase [3]) [µM] | SMILES | Activity [1] | Ki [2] [µM] | also measured |
| --- | --- | --- | --- | --- |
| 160 | CN(C)S(=O)(=O)NC[C@H]1O[C@@H](n2c(SCC(=O)NCCc3ccc(Cl)c(Cl)c3)nc3c(N)ncnc32)[C@H](O)[C@@H]1O | Non-Toxic | 3.5 |  |
| 130 | NC[C@H]1O[C@@H](n2c(SCC(=O)NCCc3ccc(Cl)c(Cl)c3)nc3c(N)ncnc32)[C@H](O)[C@@H]1O | Non-Toxic | 2 |  |
| 140 | [N-]=[N+]=NC[C@H]1O[C@@H](n2c(SCC(=O)NCCc3ccc4ccccc4c3)nc3c(N)ncnc32)[C@H](O)[C@@H]1O | Non-Toxic | 5 |  |
| 335 | Nc1ncnc2c1nc(SCC(=O)NCCc1cccc(Br)c1)n2[C@@H]1O[C@H](CO)[C@@H](O)[C@H]1O | Non-Toxic | 2 | IC50 (NAD kinase [4]): > 400 µM |
| 220 | [N-]=[N+]=NC[C@H]1O[C@@H](n2c(SCC(=O)NCc3ccnc(Cl)c3)nc3c(N)ncnc32)[C@H](O)[C@@H]1O | Non-Toxic |  | inhibition (Listeria monocytogenes): 20%; IC50 (NAD kinase [4]): > 400 µM |
| 350 | Cn1cc(CCNC(=O)CSc2nc3c(N)ncnc3n2[C@@H]2O[C@H](CN=[N+]=[N-])[C@@H](O)[C@H]2O)c2ccccc21 | Non-Toxic | 0.4 |  |
| 140 | [N-]=[N+]=NC[C@H]1O[C@@H](n2c(SCC(=O)NCCc3c[nH]c4ccccc34)nc3c(N)ncnc32)[C@H](O)[C@@H]1O | Non-Toxic | 0.5 |  |
|  | COc1ccc2[nH]cc(CCNC(=O)CSc3nc4c(N)ncnc4n3[C@@H]3O[C@H](CO)[C@@H](O)[C@H]3O)c2c1 | Non-Toxic | 40 |  |
| 140 | C#CCNC(=O)CSc1nc2c(N)ncnc2n1[C@@H]1O[C@H](CN=[N+]=[N-])[C@@H](O)[C@H]1O | Non-Toxic | 30 | IC50 (NAD kinase [4]): > 400 µM |
|  | C#Cc1cccc(CCNC(=O)CSc2nc3c(N)ncnc3n2[C@@H]2O[C@H](CN=[N+]=[N-])[C@@H](O)[C@H]2O)c1 | Non-Toxic | 6 | inhibition [5]: 20% |
| 230 | [N-]=[N+]=NC[C@H]1O[C@@H](n2c(SCC(=O)NCCc3ccc(C(F)(F)F)cc3)nc3c(N)ncnc32)[C@H](O)[C@@H]1O | Non-Toxic | 7.5 |  |
| 150 | [N-]=[N+]=NC[C@H]1O[C@@H](n2c(SCC(=O)NCCCc3ccccc3)nc3c(N)ncnc32)[C@H](O)[C@@H]1O | Non-Toxic | 55 | IC50 (NAD kinase [4]): > 400 µM |
|  | Nc1ncnc2c1nc(SCC(=O)NCCc1ccc(C(F)(F)F)cc1)n2[C@@H]1O[C@H](CO)[C@@H](O)[C@H]1O | Non-Toxic | 10 |  |
| 425 | Nc1ncnc2c1nc(SCC(=O)NCCc1ccc(Cl)c(Cl)c1)n2[C@@H]1O[C@H](CO)[C@@H](O)[C@H]1O | Non-Toxic | 22 |  |
| 160 | COc1ccc2[nH]cc(CCNC(=O)CSc3nc4c(N)ncnc4n3[C@@H]3O[C@H](CN=[N+]=[N-])[C@@H](O)[C@H]3O)c2c1 | Non-Toxic | 5 |  |
| 130 | NC[C@H]1O[C@@H](n2c(SCC(=O)NCCc3ccc(Br)cc3)nc3c(N)ncnc32)[C@H](O)[C@@H]1O | Non-Toxic | 55 |  |
| 180 | C[C@H]1O[C@@H](n2c(SCC(=O)NCCc3ccc(Cl)c(Cl)c3)nc3c(N)ncnc32)[C@H](O)[C@@H]1O | Non-Toxic | 1.5 |  |

| Ki (NAD kinase [3]) [µM] | SMILES | Activity [1] | Ki [2] [µM] | also measured |
| --- | --- | --- | --- | --- |
| 210 | [N-]=[N+]=NC[C@H]1O[C@@H](n2c(SCC(=O)NCCc3ccc(Cl)cc3)nc3c(N)ncnc32)[C@H](O)[C@@H]1O | Non-Toxic | 0.5 |  |
|  | Nc1ncnc2c1nc(SCC(=O)NCCc1ccc(Cl)cc1)n2[C@@H]1O[C@H](CO)[C@@H](O)[C@H]1O | Non-Toxic | 40 | inhibition [6]: 20% |
| 200 | Nc1ncnc2c1nc(SCC(=O)NCCc1cccc(Cl)c1)n2[C@@H]1O[C@H](CO)[C@@H](O)[C@H]1O | Non-Toxic | 30 |  |
| 300 | [N-]=[N+]=NC[C@H]1O[C@@H](n2c(SCC(=O)NCCc3cccc(C(F)(F)F)c3)nc3c(N)ncnc32)[C@H](O)[C@@H]1O | Non-Toxic | 6.5 |  |
| 250 | Nc1ncnc2c1nc(SCC(=O)NCCc1ccc(Br)cc1)n2[C@@H]1O[C@H](CO)[C@@H](O)[C@H]1O | Non-Toxic | 30 |  |
|  | CCNC(=O)NC[C@H]1O[C@@H](n2c(SCC(=O)NCCc3ccc(Cl)c(Cl)c3)nc3c(N)ncnc32)[C@H](O)[C@@H]1O | Non-Toxic | 3 | inhibition [5]: 10% |
|  | [N-]=[N+]=NC[C@H]1O[C@@H](n2c(SCC(=O)NCCc3c[nH]c4ccc(Cl)cc34)nc3c(N)ncnc32)[C@H](O)[C@@H]1O | Non-Toxic | 0.3 |  |
|  | [N-]=[N+]=NC[C@H]1O[C@@H](n2c(SCC(=O)NCCc3ccc(Br)cc3)nc3c(N)ncnc32)[C@H](O)[C@@H]1O | Non-Toxic | 0.5 |  |
|  | Nc1ncnc2c1nc(SCC(=O)NCCc1c[nH]c3ccccc13)n2[C@@H]1O[C@H](CO)[C@@H](O)[C@H]1O | Non-Toxic | 2 | inhibition [6]: 20% |
|  | Nc1ncnc2c1nc(SCC(=O)NCCc1ccccc1)n2[C@@H]1O[C@H](CO)[C@@H](O)[C@H]1O | Non-Toxic | 140 | inhibition [8]: 10%; IC50 (NAD kinase [4]): > 400 µM |
|  | [N-]=[N+]=NC[C@H]1O[C@@H](n2c(SCC(=O)NCc3cccc(Br)c3)nc3c(N)ncnc32)[C@H](O)[C@@H]1O | Non-Toxic | 25 | IC50 (NAD kinase [4]): > 400 µM |
| 775 | Nc1ncnc2c1nc(SCC(=O)NCCc1c[nH]c3ccc(Cl)cc13)n2[C@@H]1O[C@H](CO)[C@@H](O)[C@H]1O | Non-Toxic | 0.25 |  |
| 525 | [N-]=[N+]=NC[C@H]1O[C@@H](n2c(SCC(=O)NCCc3nc4ccccc4[nH]3)nc3c(N)ncnc32)[C@H](O)[C@@H]1O | Non-Toxic | 23 |  |
|  | [N-]=[N+]=NC[C@H]1O[C@@H](n2c(SCC(=O)NCCc3cccc(Cl)c3)nc3c(N)ncnc32)[C@H](O)[C@@H]1O | Non-Toxic | 0.75 |  |
|  | Nc1ncnc2c1nc(SCCC(=O)NCCc1cccc(Br)c1)n2[C@@H]1O[C@H](CO)[C@@H](O)[C@H]1O | Non-Toxic | 50 | IC50 (NAD kinase [4]): > 400 µM |
| 140 | [N-]=[N+]=NC[C@H]1O[C@@H](n2c(SCC(=O)NCCc3ccc(Cl)c(Cl)c3)nc3c(N)ncnc32)[C@H](O)[C@@H]1O | Non-Toxic | 0.1 |  |

| SMILES | Ki (NAD kinase [3]) [µM] | Activity [1] | Ki [2] [µM] | also measured |
| --- | --- | --- | --- | --- |
| [N-]=[N+]=NC[C@H]1O[C@@H](n2c(SCC(=O)NCCc3ccccc3)nc3c(N)ncnc32)[C@H](O)[C@@H]1O | 350 | Non-Toxic | 5 | Ratio Ki [7]: 3; IC50 (NAD kinase [4]): > 400 µM |

Reference: ChEMBL document CHEMBL3875180, “8-Thioalkyl-adenosine derivatives inhibit Listeria monocytogenes NAD kinase through a novel binding mode” (Eur J Med Chem, 2016)
